# Experimental data: article PMC6255700, “A novel glycosyltransferase catalyses the transfer of glucose to glucosylated anthocyanins in purple sweet potato” (Journal of Experimental Botany, 2018)
# What was measured:
# [1] = molecular target: T1, At3GGT (UGT79B1, AtA3G2XylT) (Arabidopsis thaliana, UniProt Q9LVW3); experiment: HPLC / LC-MS glycosyltransferase assay with crude recombinant yeast extract; format: cell-based; conditions: acceptor; donor UDP-xylose; 100 mM phosphate pH 7.0, 37 °C, 2 h
# T1 construct: gene A3G2XYLT; full length, C-terminal His6, pYES2 in Saccharomyces cerevisiae BY4742, crude yeast extract
# T1 sequence (Q9LVW3 1-468): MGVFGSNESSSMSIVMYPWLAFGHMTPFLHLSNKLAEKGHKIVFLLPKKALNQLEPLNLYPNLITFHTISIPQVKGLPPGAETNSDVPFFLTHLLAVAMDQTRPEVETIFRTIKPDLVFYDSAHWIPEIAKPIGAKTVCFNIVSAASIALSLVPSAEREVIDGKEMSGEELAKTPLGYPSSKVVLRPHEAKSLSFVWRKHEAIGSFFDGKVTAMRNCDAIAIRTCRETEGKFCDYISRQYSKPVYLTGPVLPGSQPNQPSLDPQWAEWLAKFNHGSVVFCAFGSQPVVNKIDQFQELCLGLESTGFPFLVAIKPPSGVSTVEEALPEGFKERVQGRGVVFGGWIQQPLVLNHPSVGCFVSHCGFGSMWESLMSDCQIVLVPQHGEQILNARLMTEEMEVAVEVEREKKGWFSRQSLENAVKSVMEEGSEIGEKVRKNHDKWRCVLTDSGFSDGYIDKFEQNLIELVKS
# Ib3GGT (IbA3G2GluT) = molecular target: T2, Ib3GGT (IbA3G2GluT) (Ipomoea batatas, UniProt A1YM58); experiment: as above; format: cell-based; conditions: acceptor; donor 1 mM UDP-glucose; 100 mM phosphate pH 7.0, 37 °C, 2 h
# T2 construct: gene GT
# T2 sequence (A1YM58 entry or part of it): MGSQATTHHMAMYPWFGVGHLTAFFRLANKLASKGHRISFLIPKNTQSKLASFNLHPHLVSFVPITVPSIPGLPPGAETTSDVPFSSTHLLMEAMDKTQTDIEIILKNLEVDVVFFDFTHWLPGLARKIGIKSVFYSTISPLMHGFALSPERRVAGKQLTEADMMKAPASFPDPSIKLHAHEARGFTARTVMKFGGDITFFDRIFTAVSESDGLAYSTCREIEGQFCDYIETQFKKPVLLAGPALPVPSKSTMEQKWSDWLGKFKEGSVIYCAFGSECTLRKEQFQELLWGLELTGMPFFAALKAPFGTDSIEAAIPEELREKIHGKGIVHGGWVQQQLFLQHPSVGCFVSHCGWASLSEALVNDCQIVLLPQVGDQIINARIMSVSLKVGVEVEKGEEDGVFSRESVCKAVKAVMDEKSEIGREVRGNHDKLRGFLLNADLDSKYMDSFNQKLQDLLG
structure (smiles),measurement,setting,value
OC[C@H]1O[C@@H](Oc2cc3c(O)cc(O)cc3[o+]c2-c2ccc(O)c(O)c2)[C@H](O)[C@@H](O)[C@@H]1O [cyanidin 3-O-glucoside],HPLC / LC-MS glycosyltransferase assay with crude recombinant yeast extract,[1],using only UDP-xylose as the sugar donor to catalyse cyanidin 3-O-glucoside into cyanidin 3-O-glucoside-2″-O-xyloside
same,HPLC / LC-MS glycosyltransferase assay with crude recombinant yeast extract,Ib3GGT (IbA3G2GluT),The recombinant Ib3GGT protein only catalysed the conversion of cyanidin 3-O-glucoside into cyanidin 3-O-sophoroside
